This is an account of results in US7615542B2, “Dioxolane thymine and combinations for use against 3TC/AZT resistant strains of HIV” (priority 2002, dated 2009).

In test [1] the test system is HIV-1 isolate 5705-0. Nature of the test: Anti-HIV efficacy in PBMC, isolate 5705-0. The following applies: for IC50: Human immunodeficiency virus 1, PBMC, isolate 5705-0 (pre-treatment), read-out: Drug (IC50). In kind it is cell-based. As for the experimental part: (§1) The following Tables 2 and 3, set forth below, describe the HIV resistant strains genotypically (Table 2) and phenotypically (Table 3) which were used in the experiments to test activity.
(§2) Each of the three test compounds were tested for efficacy against the various strains of HIV-1. Anti-HIV efficacy was evaluated in PBMC, reverse transcriptase activity was tested in a microtiter plate-based reverse transciptase assay (Buckeit, et al., AIDS Research and Human Retroviruses, 7:295-302, 1991), MTS staining was used for determining cell viability. […] Table 5 presents a resistance phenotype comparison for compounds of the present invention versus the compounds 3TC and AZT.
(§3) The compounds were also evaluated in a parallel assay for cytotoxicity in uninfected PBM cells.

Test [2] has as its system HIV-1 isolate 5705-72. As to the kind of experiment: Anti-HIV efficacy in PBMC, isolate 5705-72. It counts as cell-based. The following applies: for IC50: Human immunodeficiency virus 1, PBMC, isolate 5705-72 (post-treatment), read-out: Drug (IC50). The procedure:
as §1
(§4) Each of the three test compounds were tested for efficacy against the various strains of HIV-1. Anti-HIV efficacy was evaluated in PBMC, reverse transcriptase activity was tested in a microtiter plate-based reverse transciptase assay (Buckeit, et al., AIDS Research and Human Retroviruses, 7:295-302, 1991), MTS staining was used for determining cell viability.
as §3

In test [3] the test system is HIV-1 isolate 488-0. As to the kind of experiment: Anti-HIV efficacy in PBMC, isolate 488-0. It counts as cell-based. The settings on record: for IC50: Human immunodeficiency virus 1, PBMC, isolate 488-0 (pre-treatment), read-out: Drug (IC50). As for the experimental part:
as §1, §2, §3

The subject of test [4] is HIV-1 isolate 488-101. As to the kind of experiment: microbe, parasite or virus in culture. It counts as cell-based. The settings on record: for IC50: Human immunodeficiency virus 1, PBMC, isolate 488-101 (post-treatment), read-out: Drug (IC50); for Phenotype for 488-101: resistance phenotype comparison, Table 5. The procedure: as §1, §4, §3
The subject of test [5] is HIV-1 isolate LAI. Nature of the test: Anti-HIV efficacy in PBMC, isolate LAI. It counts as cell-based. The settings on record: for IC50: Human immunodeficiency virus 1, PBMC, read-out: Drug (IC50). The procedure: as §1, §2, §3
Test [6] deals with HIV-1 isolate LAI M184V. Nature of the test: Anti-HIV efficacy in PBMC, isolate LAI M184V. In kind it is cell-based. The following applies: for Phenotype for LAI M184V: resistance phenotype comparison, Table 5. As for the experimental part: as §1, §4, §3
The subject of test [7] is HIV-1 isolate H112-2. As to the kind of experiment: Anti-HIV efficacy in PBMC, isolate H112-2. The settings on record: for IC50: Human immunodeficiency virus 1, PBMC, isolate H112-2 (pre-treatment), read-out: Drug (IC50). In kind it is cell-based. As for the experimental part: as §1, §2, §3
Test [8] has as its system HIV-1 isolate G910-6. Nature of the test: Anti-HIV efficacy in PBMC, isolate G910-6. It counts as cell-based. The following applies: for IC50: Human immunodeficiency virus 1, PBMC, isolate G910-6 (post-treatment), read-out: Drug (IC50); for Phenotype for G910-6: resistance phenotype comparison, Table 5. The procedure: as §1, §4, §3
The test system of test [9] is panel of HIV-1 3TC/AZT drug sensitive/resistant matched pair virus isolates. As to the kind of experiment: Standardized PBMC cell-based anti-HIV assay, matched pair panel. The following applies: AZT and/or 3TC resistant isolates. As for the experimental part: as §4, §3
For test [10], the system named is mutations 65R, 74V, 184V, and 115F in the RT gene. The following applies: mutants harboring 2 or 3 of these mutations; cited from earlier work.

The term IC50 denotes the concentration that inhibits the measured activity by half. For `Nc1ccn([C@@H]2CS[C@H](CO)O2)c(=O)n1` [3TC, Lamivudine], the IC50 is 4 to 9 nM in test [1]; over 50000 nM in test [2]; 30 to 47 nM in test [3]; 40600 nM in test [4]; 10 nM in test [5]; over 50000 nM in [6] (Human immunodeficiency virus 1, PBMC, isolate LAI-M184V, read-out: Drug (IC50)). The results for the IC50 in test [7] and in test [8] were 170 nM and 320 nM, respectively. The “Phenotype for 488-101” value in test [4] is “Resistant (>5 fold resistance, Resistant)”. In test [8], the “Phenotype for G910-6” value was “Sensitive (<5 fold resistance, Sensitive)”.
Consider `Cc1cn([C@H]2C[C@H](N=[N+]=[N-])[C@@H](CO)O2)c(=O)[nH]c1=O` [AZT, 3′-Azido-3′-deoxythymidine], for which the IC50 in test [1] was 3 to 8 nM; in [2] it was 30 nM; in test [3], 0.3 to 0.6 nM; in test [4], 80 nM; in [5] it was 20 nM; in [7], 10 nM. Further, the concentration for half-maximal inhibition (IC50) in test [8] is 620 nM. Moreover, the Phenotype result is reported as “Sensitive” in test [1] (isolate 5705-0, Table 3); “Sensitive” in test [3] (isolate 488-0, Table 3); “Resistant” in test [4] (isolate 488-101, Table 3); “Sensitive” in test [5] (Table 3); “Sensitive” in test [6] (isolate LAI-M184V, Table 3); “Sensitive” in [7] (isolate H112-2, Table 3). Also, in test [8] (isolate G910-6, Table 3), the Phenotype entry is reported as “Resistant”. Also, the “Phenotype for LAI M184V” value in [6] is listed as “Sensitive (<5 fold resistance, Sensitive)”. Moreover, in [8], the “Phenotype for G910-6” value is given as “Resistant (>5 fold resistance, Resistant)”.
Take `Nc1nc(N)c2ncn(C3COC(CO)O3)c2n1` [DAPD, beta-D-9-(5-hydroxymethyl-dioxolanyl-2-yl)-2,4-diamino-purine]: in [2] (resistance phenotype comparison, Table 5), the Resistance phenotype result is “Resistant (>5 fold resistance, Resistant)”. Further, the “Phenotype for 488-101” value in test [4] is recorded as “Sensitive (<5 fold resistance, Sensitive)”. Also, the “Phenotype for LAI M184V” value in test [6] is recorded as “Sensitive (<5 fold resistance, Sensitive)”. Also, in test [8], the “Phenotype for G910-6” value was “Sensitive (<5 fold resistance, Sensitive)”. In addition, the “Cross-resistance / resistance profile” value in [9] is given as “resistance profile similar to AZT”.
For the molecule `Nc1nc2c(ncn2[C@H]2CO[C@@H](CO)O2)c(=O)[nH]1` [DXG, beta-D-9-(5-hydroxymethyl-dioxolanyl-2-yl)guanine], the “Phenotype for 488-101” value in test [4] is reported as “Sensitive (<5 fold resistance, Sensitive)”. The “Phenotype for LAI M184V” value in test [6] is “Resistant (>5 fold resistance, Resistant)”. In test [8], the “Phenotype for G910-6” value is “Sensitive (<5 fold resistance, Sensitive)”. Also, the “Cross-resistance / resistance profile” value in test [9] is on record as “resistance profile similar to that of 3TC”.
On to `Nc1nc(NC2CC2)c2ncn([C@H]3C=C[C@@H](CO)C3)c2n1` [abacavir, Abacavir], for which, in test [10], the “resistance to the drug” value is reported as “approximately 10 fold”.
